Assay results taken from patent US20090030071A1, “Treatment of Cardiovascular Disease in Mexican Americans Using Nebivolol” (priority 2007, published 2009).
Entries after “also recorded” stand apart in the source; their conditions may differ.

What was measured:
[1] = tested on: arteries isolated from control Wistar-Kyoto (WKY) rats; experiment: NO release from arteries isolated from control Wistar-Kyoto (WKY) rats; design: species or system rat; conditions: for amount of NO released: WKY rat arteries, concentration of 10 μM (maximum NO release)
Procedure: In one aspect of the present invention, a composition comprising nebivolol is administered to a person of Hispanic descent, particularly a Mexican American, wherein nebivolol is administered in a mixture containing a greater proportion (enantiomeric excess) of the l-steroisomer of nebivolol. In another embodiment, all or substantially all of the mixture comprises the l-stereoisomer of nebivolol. NO release levels from arteries isolated from control Wistar-Kyoto (WKY) rats following treatment with nebivolol racemate, l-nebivolol or d-nebivolol vary. […] At this concentration, the amount of NO released was 340±30 nM, 284±24 nM, and 180±21 nM for l-nebivolol, nebivolol racemate and d-nebivolol, respectively. These findings confirm that nebivolol can stimulate NO release in the intact artery in a stereoselective manner. See also, Xhonneux R, Wouters L, Reneman R S, et al. The l-enantiomer of nebivolol potentiates the blood pressure lowering effect of the d-enantiomer. Eur. J. Pharmacol. 1990; 181:261-265.

[2] = tested on: human umbilical vein endothelial cells (HUVECs); experiment: Endothelial-dependent NO release from HUVECs of non-Hispanic white and Mexican American donors, measured with electrochemical nanosensors; format: cell-based; conditions: for increase in NO release (NO bioavailability): 24 h pretreatment with nebivolol at 1.0 μM (FIG. 4)
Procedure: The effects of nebivolol and atenolol on endothelial-dependent NO release were tested in human umbilical vein endothelial cells (HUVECs). Human umbilical vein endothelial cells were isolated into primary cultures from non-Hispanic white and Mexican American female donors by Clonetics (San Diego, Calif.) and purchased as proliferating cells. All cell culture donors were healthy, with no pregnancy or prenatal complications. None of the donors took any drugs regularly and all were nonsmokers and consumed regular caloric/content diet. The identification of race was defined by self-report. The cultured cells were incubated in 95% air/5% CO2 at 37° C. and passage by an enzymatic (trypsin) procedure. […] Before the experiments, the cells (from second or third passage) were rinsed twice with Tyrode-HEPES buffer with 1.8 mmol/L CaCl2. Drugs were obtained from Mylan Laboratories (Morgantown, W. Va.). NO measurement was carried out with electrochemical nanosensors The design was based on previously developed and well-characterized chemically modified carbon-fiber technology ([…], Nature 358, 676-678, 1992; […]. Anal. Chem. 69, 454-462, 1997). Each of the nanosensors was made by depositing a sensing material on the tip of a carbon fiber (length 4-5 μm, diameter 0.2-0.5 μm). The fibers were sealed with nonconductive epoxy and electrically connected to copper wires with conductive silver epoxy. […] The NO nanosensors (diameter 1-2 μm) with a platinum wire (0.1 mm) counter electrode and saturated calomel reference electrode (SCE) were applied. Differential pulse voltammetry (DPV) and amperometry were performed with a computer-based Gamry VFP600 multichannel potentiostat. DPV was used to measure the basal NO concentrations, and amperometry was used to measure changes in NO concentrations from its basal level with time. The DPV current at the peak potential characteristic for NO oxidation (0.65 V) […] was directly proportional to the local concentrations of these compounds in the immediate vicinity of the sensor. Linear calibration curves (current vs. concentration) were constructed for each sensor from 10 nmol/L to 3 μmol/L before and after measurements with aliquots of NO standard solutions, respectively. The detection limit of the sensors was 10^-9 mol/L. The quantification of each analyte (concentration in nmol/L) was performed using a maximum current from amperograms and standard calibration curves. A reproducibility of measurements with nanosensors is relatively high (between 5-12%). […] The sensors were slowly raised 4±1 μm from the surface of a single endothelial cell. The HUVEC preparation is stable over the course of these experiments with the cells remaining viable in culture for >24 hours. Under non-stimulating conditions, basal levels of NO release are very low (<30 nM). […]

[3] = tested on: human umbilical vein endothelial cells; experiment: CaI-stimulated endothelial NO release in HUVECs from MA and NHW donors after 24 h pre-treatment (nanosensor array); format: cell-based; conditions: for enhancement of NO release: pretreatment 24 hr, 1.0 μM, CaI 1.0 μM stimulus
Procedure: (§1) Endothelial function in cells from normotensive, age-matched Mexican American (MA) and Non-Hispanic White (NHW) donors, as well as the effects of treatment with nebivolol was also determined. Endothelial NO and peroxynitrite (ONOO^−) release was measured simultaneously in human umbilical vein endothelial cells from age-matched MA and NHW donors using a nanosensor array. The effects of nebivolol on NO and ONOO^− production was evaluated following pre-treatment (24 h) using calcium ionophore (CaI) as a receptor-independent stimulus. Levels of eNOS were measured by Western blot analysis. Drug-membrane interactions were determined by small angle x-ray diffraction analysis.

[4] = tested on: human umbilical vein endothelial cells; experiment: CaI-stimulated peroxynitrite (ONOO−) release in HUVECs from MA and NHW donors after 24 h pre-treatment (nanosensor array); format: cell-based; conditions: for reduction of ONOO− levels: nebivolol pretreatment
Procedure: as §1

eNOS = eNOS levels by Western blot analysis in endothelium; format: cell-based, human; conditions: MA endothelium, nebivolol treatment
Procedure: as §1

aortic endothelial cells = experiment: STZ-induced diabetes: CaI-induced endothelial-dependent NO release from aortic endothelial cells after nebivolol treatment of animals; format: in vivo; conditions: nebivolol treatment prior to sacrifice at 13 weeks, p=0.1273
Text: FIG. 6 depicts the effects of STZ-induced diabetes on the ratio of CaI-induced NO/ONOO release from aortic endothelial cells in the absence and presence of nebivolol treatment prior to sacrifice of animals at 13 weeks. Values are reported as mean±SD. *p<0.0001 versus control and ^†p<0.001 versus STZ treatment (Student t-test). FIG. 7 depicts the effects of STZ-induced diabetes on CaI-induced endothelial-dependent NO release from aortic endothelial cells in the absence and presence of nebivolol treatment prior to sacrifice of animals at 13 weeks. Values are reported as mean±SD. *p<0.0001 versus control and ^†p<0.001 versus STZ treatment (Student t-test).

Compound: O[C@H](CNC[C@@H](O)[C@H]1CCc2cc(F)ccc2O1)[C@@H]1CCc2cc(F)ccc2O1 [d-nebivolol]
- ability to stimulate NO release (order of activity) ([1]; WKY arterial vessels): weakest stimulant of NO release
- amount of NO released [1]: 180 ± 21 nM

Compound: O[C@@H](CNC[C@H](O)[C@H]1CCc2cc(F)ccc2O1)[C@@H]1CCc2cc(F)ccc2O1 [l-nebivolol]
- amount of NO released [1]: 340 ± 30 nM

Compound: CC(C)NCC(O)COc1ccc(CC(N)=O)cc1 (stereo not drawn) [atenolol]
- stimulation of NO release ([2]; either racial group, identical conditions (24 h pre-incubation at 1.0 or 5.0 μM, FIGS. 4 and 5)): failed to stimulate any significant amount of NO release; also recorded: did not have any effect
- effects on NO release, ONOO− levels, NO/ONOO− ratio and eNOS levels ([3]; MA and NHW HUVECs): not observed

Compound: OC(CNCC(O)C1CCc2cc(F)ccc2O1)C1CCc2cc(F)ccc2O1 (racemic) [nebivolol, α, α′-[iminobismethylene]bis[6-fluoro-3,4-dihydro-2H-1-benzopyran-2-methanol]]
- increase in NO release (NO bioavailability) ([2]; HUVECs from Mexican American donors): 138 ± 2 nM
- increase in NO release (NO bioavailability) ([2]; HUVECs from white donors): 68 ± 3 nM
- increase in NO bioavailability, Mexican American samples relative to white donors ([2]; nebivolol at 1.0 μM, 24 h pretreatment): two-fold greater
- enhancement of NO release ([3]; MA cells): 57%
- increase of ratio of NO to ONOO− (indicator of eNOS coupling) ([3]; MA, following nebivolol treatment): more than 5 fold
- enhancement of NO release ([3]; NHW cells): 20%
- ONOO− level after treatment ([4]; MA endothelium, from 746±12 nM without treatment): 195 ± 10 nM
- reduction of ONOO− levels ([4]; MA endothelium): 75%
- ONOO− level after treatment ([4]; NHW endothelium, from 416±7 nM without treatment): 191 ± 13 nM
- reduction of ONOO− levels ([4]; NHW endothelium): 50%
- increase of eNOS levels (eNOS): two-fold
- amount of NO released [1]: 284 ± 24 nM
- CaI-induced endothelial-dependent NO release versus non-diabetic control animals (aortic endothelial cells): not a statistically significant difference as compared to non-diabetic control animals
